Target: Cyclin-dependent kinase 2 (Homo sapiens, UniProt P24941)
Assay: Inhibition of CDK2/Cyclin A

SMILES | IC50 (read-out: IC50) [nM] | IC50 (read-out: pIC50 (converted)) [nM]
CCCC(=O)Nc1cc(C)[nH]n1 | > 10000 | 
O=C(Nc1cc(C2CC2)[nH]n1)c1ccccc1Cl | 10000 | 
O=C(Cc1ccc(Cc2cccs2)cc1)Nc1cc(C2CC2)n[nH]1 | 3 | 3
O=C(Nc1cc(C2CC2)[nH]n1)c1c(Cl)cccc1Cl | > 10000 | 
CO[C@@H](C(=O)Nc1cc(C2CC2)n[nH]1)c1ccccc1 | > 10000 | 
COc1ccccc1C(=O)Nc1cc(C2CC2)[nH]n1 | > 10000 | 

Continued, values first:

IC50 (read-out: IC50) [nM] | IC50 (read-out: pIC50 (converted)) [nM] | SMILES
10000 |  | O=C(Nc1cc(C2CCCCC2)[nH]n1)c1ccc(Br)cc1
> 10000 |  | O=C(Nc1cc(Cc2ccccc2)[nH]n1)c1ccc(Br)cc1
> 10000 |  | O=C(Nc1cc(-c2ccccc2)[nH]n1)c1ccc(Br)cc1
9 | 8.99 | Cc1cc(CC(=O)Nc2cc(C3CC3)[nH]n2)ccc1-c1ccccc1
4 | 4 | O=C(Cc1ccc(-c2ccccc2)c(F)c1)Nc1cc(C2CC2)n[nH]1
> 10000 |  | CC(C)(C)c1cc(NC(=O)c2ccc(Br)cc2)n[nH]1

Source: ChEMBL document CHEMBL1140962, “An efficient tool for identifying inhibitors based on 3D-QSAR and docking using feature-shape pharmacophore of biologically active conformation--a case study with CDK2/cyclinA” (Eur J Med Chem, 2008)
